The target of experiment [1] is T1, Retinoic acid receptor RXR-gamma (Homo sapiens, UniProt P48443).
T1 sequence (P48443 whole entry): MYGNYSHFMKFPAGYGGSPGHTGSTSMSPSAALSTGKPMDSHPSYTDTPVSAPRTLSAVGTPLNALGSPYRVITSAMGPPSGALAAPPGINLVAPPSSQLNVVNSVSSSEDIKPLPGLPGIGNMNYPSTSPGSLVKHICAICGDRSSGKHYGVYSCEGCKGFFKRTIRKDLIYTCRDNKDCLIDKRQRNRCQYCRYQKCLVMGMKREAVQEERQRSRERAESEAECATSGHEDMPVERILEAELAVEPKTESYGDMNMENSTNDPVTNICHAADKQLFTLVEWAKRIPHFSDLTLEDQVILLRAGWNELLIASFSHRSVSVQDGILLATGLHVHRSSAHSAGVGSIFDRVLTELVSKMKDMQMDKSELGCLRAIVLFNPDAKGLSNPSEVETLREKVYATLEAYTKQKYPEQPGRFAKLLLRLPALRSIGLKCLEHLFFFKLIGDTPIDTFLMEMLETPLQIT
Briefly: Inhibition of [3H]-9-cis-RA binding to human Retinoid X receptor RXR gamma.

In experiment [2] the target is T2, Retinoic acid receptor gamma (Homo sapiens, UniProt P13631).
T2 sequence (P13631 whole entry): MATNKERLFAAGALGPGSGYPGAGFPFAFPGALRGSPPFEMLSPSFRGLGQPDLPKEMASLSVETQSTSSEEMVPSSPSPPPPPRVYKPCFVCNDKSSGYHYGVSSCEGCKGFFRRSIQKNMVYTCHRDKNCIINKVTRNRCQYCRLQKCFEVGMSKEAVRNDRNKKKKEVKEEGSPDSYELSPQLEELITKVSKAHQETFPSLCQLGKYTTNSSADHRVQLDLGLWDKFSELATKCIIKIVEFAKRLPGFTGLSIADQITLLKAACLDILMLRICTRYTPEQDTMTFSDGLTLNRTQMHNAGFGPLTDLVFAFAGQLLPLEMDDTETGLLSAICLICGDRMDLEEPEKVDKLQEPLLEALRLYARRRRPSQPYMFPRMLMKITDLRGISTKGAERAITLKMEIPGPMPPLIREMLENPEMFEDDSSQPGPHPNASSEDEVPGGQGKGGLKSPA
Description: Inhibition of [3H]ATRA binding to human Retinoic acid receptor RAR gamma.

Experiment [3] deals with T3, Retinoic acid receptor beta (Homo sapiens, UniProt P10826).
T3 sequence (P10826 whole entry): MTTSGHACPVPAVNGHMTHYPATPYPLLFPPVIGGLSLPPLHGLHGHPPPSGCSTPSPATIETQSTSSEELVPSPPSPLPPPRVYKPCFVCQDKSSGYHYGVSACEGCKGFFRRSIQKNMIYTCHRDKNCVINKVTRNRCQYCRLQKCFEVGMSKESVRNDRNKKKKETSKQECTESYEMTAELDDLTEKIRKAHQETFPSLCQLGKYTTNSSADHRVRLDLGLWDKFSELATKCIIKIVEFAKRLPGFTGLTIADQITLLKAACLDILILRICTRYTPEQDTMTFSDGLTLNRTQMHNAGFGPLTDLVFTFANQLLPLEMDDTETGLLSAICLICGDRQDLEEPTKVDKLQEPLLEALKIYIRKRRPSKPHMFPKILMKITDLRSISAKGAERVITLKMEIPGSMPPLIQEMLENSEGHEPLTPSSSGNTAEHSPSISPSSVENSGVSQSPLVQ
Briefly: Transcriptional activation in CV-1 cells expressing human Retinoic acid receptor RAR beta; Not active. Format: cell-based.

The target of experiment [4] is T3, Retinoic acid receptor beta. Description: Inhibition of [3H]-ATRA binding to human Retinoic acid receptor RAR beta.
Experiment [5] deals with T4, Retinoic acid receptor RXR-gamma (Mus musculus, UniProt P28705).
T4 sequence (P28705 whole entry): T1 sequence (P48443 whole entry) with A13T, Y15F, A31V, S34P, T228S, G230S, M258V, T450S
Description: Transcriptional activation in CV-1 cells expressing mouse Retinoid X receptor RXR gamma. It counts as cell-based.

Experiment [6] concerns the target T5, Retinoic acid receptor alpha (Homo sapiens, UniProt P10276).
T5 sequence (P10276 whole entry): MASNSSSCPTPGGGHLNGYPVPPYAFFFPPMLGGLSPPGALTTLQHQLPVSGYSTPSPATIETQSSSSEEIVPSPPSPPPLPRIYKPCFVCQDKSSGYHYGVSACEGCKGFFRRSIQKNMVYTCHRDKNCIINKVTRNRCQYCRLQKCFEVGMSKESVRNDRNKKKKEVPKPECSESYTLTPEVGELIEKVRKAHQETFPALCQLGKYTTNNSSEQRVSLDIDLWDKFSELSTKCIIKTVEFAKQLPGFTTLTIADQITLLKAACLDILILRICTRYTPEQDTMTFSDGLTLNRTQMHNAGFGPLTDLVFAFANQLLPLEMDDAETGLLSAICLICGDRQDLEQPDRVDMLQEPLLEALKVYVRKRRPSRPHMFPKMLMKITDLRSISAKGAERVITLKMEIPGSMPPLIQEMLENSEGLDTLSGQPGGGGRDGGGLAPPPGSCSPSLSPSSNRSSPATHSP
Briefly: Transcriptional activation in CV-1 cells expressing human Retinoic acid receptor RAR alpha; Not active. It counts as cell-based.

For experiment [7], the target named is T5, Retinoic acid receptor alpha. Briefly: Inhibition of [3H]ATRA binding to human Retinoic acid receptor RAR alpha.
Experiment [8] deals with T6, Retinoic acid receptor RXR-beta (Mus musculus, UniProt P28704).
T6 sequence (P28704 whole entry): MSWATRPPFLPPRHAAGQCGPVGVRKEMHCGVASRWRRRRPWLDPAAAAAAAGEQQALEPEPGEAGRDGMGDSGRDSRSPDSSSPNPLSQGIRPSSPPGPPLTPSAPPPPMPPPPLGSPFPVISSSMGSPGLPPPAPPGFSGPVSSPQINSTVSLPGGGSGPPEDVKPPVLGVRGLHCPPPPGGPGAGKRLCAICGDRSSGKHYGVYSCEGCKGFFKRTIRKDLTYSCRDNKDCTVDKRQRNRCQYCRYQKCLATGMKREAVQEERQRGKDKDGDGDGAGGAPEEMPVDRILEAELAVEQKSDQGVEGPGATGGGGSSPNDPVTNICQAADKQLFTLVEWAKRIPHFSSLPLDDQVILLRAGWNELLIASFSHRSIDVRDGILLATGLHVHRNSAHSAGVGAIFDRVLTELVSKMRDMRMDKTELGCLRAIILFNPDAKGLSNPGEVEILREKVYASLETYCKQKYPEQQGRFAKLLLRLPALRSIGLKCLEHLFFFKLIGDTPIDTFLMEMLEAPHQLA
Description: Inhibition of [3H]9-cis-RA binding to mouse Retinoid X receptor RXR beta.

The target in experiment [9] is T6, Retinoic acid receptor RXR-beta. Briefly: Transcriptional activation in CV-1 cells expressing mouse Retinoid X receptor RXR beta. It counts as cell-based.
Experiment [10] concerns the target T2, Retinoic acid receptor gamma. Briefly: Transcriptional activation in CV-1 cells expressing human Retinoic acid receptor RAR gamma; Not active. Format: cell-based.
The target in experiment [11] is T7, Retinoic acid receptor RXR-alpha (Homo sapiens, UniProt P19793).
T7 sequence (P19793 whole entry): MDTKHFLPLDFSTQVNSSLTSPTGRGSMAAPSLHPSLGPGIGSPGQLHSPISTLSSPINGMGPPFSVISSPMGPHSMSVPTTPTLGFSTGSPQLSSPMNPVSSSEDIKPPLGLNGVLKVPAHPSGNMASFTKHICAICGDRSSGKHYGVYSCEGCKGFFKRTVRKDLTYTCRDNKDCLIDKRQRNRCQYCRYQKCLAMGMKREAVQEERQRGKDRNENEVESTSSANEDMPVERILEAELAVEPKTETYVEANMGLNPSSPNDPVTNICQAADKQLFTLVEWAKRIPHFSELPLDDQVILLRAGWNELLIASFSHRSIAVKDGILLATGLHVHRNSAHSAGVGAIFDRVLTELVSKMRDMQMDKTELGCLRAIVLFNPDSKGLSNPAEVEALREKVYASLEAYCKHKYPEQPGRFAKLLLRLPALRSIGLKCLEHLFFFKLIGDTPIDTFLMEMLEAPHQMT
Description: Inhibition of [3H]9-cis-RA binding to human Retinoid X receptor RXR alpha.

Experiment [12] addresses T7, Retinoic acid receptor RXR-alpha. Description: Transcriptional activation in CV-1 cells expressing human Retinoid X receptor RXR-alpha. It counts as cell-based.
Experiment [13] addresses T3, Retinoic acid receptor beta. Briefly: Transcriptional activation in CV-1 cells expressing human Retinoic acid receptor RAR beta. Format: cell-based.
The target of experiment [14] is T5, Retinoic acid receptor alpha. Briefly: Transcriptional activation in CV-1 cells expressing human Retinoic acid receptor RAR alpha. It counts as cell-based.
Experiment [15] deals with T2, Retinoic acid receptor gamma. Briefly: Transcriptional activation in CV-1 cells expressing human Retinoic acid receptor RAR gamma. It counts as cell-based.

Each structure is given as a SMILES string. Residue numbers refer to the chain shown, from its start.

As usually defined, the Kd is the free concentration of one partner at which half of the binding sites on the other are occupied at equilibrium, for simple one-to-one binding. Low readings indicate a tighter complex, high ones a looser complex. Turning to `CC(/C=C/CC1(c2ccc3c(c2)C(C)(C)CCC3(C)C)CC1)=C\C(=O)O`, the Kd in experiment [1] came out at 8 nM. This lies in the single-digit nanomolar range.

The EC50 is the concentration needed to bring the measured effect to its halfway point. Lower therefore signals a more potent agent. For the molecule `CC(/C=C/CC1(c2ccc3c(c2)C(C)(C)CCC3(C)C)CCCC1)=C\C(=O)O`, the Kd is > 1000 nM in experiment [2]; 6 nM in experiment [1]; > 1000 nM in experiment [4]; > 1000 nM in experiment [7]; 7 nM in experiment [8]. The EC50 result in experiment [3] was “Not Active”; in experiment [5], 24 nM; in [6], “Not Active”; in experiment [9], 19 nM; in experiment [10], “Not Active”.

As for `CC(/C=C/CC1(c2cc3c(cc2C)C(C)(C)CCC3(C)C)CC1)=C\C(=O)O`, the Kd is > 1000 nM in experiment [2]; 16 nM in experiment [11]; 153 nM in experiment [1]; > 1000 nM in experiment [7]; 18 nM in [8]. The EC50 entry in experiment [3] was “Not Active”; in experiment [5] it was 36 nM; in [6] it was “Not Active”; in experiment [12], 31 nM; in experiment [9], 9 nM; in [10], “Not Active”.

On to `CC(/C=C/CC1(c2cc(C(C)(C)C)cc3c2CCC3(C)C)CC1)=C\C(=O)O`, for which the Kd was > 1000 nM in [2], 22 nM in [1], > 1000 nM in experiment [4] and > 1000 nM in experiment [7]. Also, the EC50 entry in experiment [3], in experiment [6] and in experiment [10] was “Not Active” each time.

In the case of `CC(/C=C/CC1(c2cc(C(C)(C)C)cc(C(C)(C)C)c2)CC1)=C\C(=O)O`, the Kd in [2] is > 1000 nM; in experiment [11], 3 nM; in experiment [4], > 1000 nM; in experiment [7], > 1000 nM; in experiment [8], 8 nM. For the same molecule, the EC50 in experiment [13] was determined as 139 nM; in [5], 23 nM; in experiment [14] it was 733 nM; in experiment [12], 30 nM; in experiment [9] it was 19 nM; in [15], 391 nM.

Source of the values: ChEMBL document CHEMBL1136268, “Retinoic acid receptor ligands based on the 6-cyclopropyl-2,4-hexadienoic acid” (Bioorg Med Chem Lett, 2003).
